The target of this assay is Cyclin-A2/Cyclin-dependent kinase 2 (Homo sapiens, UniProt P24941). Nature of the assay: CDK Inhibition Assay. Conditions: pH 7.5; 22 °C. As to the method: In vitro kinase assay using purified CDK2/Cyclin A was incubated at room temperature with substrate, and test compounds in the presence of 100 uM ATP/ [gamma-33P] ATP. Assays were performed in 96-well polypropylene plates. 33P incorporation into substrate was measured using a scintillation counter.

This is an account of results in BindingDB's records for doi:10.1016/j.bmcl.2007.04.110 (Vernalis (R&D), 2007).

Each structure is given as a SMILES string.

The IC50 is the concentration at which inhibition is half-maximal. The low end stands for inhibition by little substance, the high end for a need for much substance. As for `NS(=O)(=O)c1ccc(-c2ccc(/C=c3\sc4nc5ccccc5n4c3=O)o2)cc1` [4-(5-{[(4Z)-3-oxo-5-thia-2,7-diazatricyclo[6.4.0.0^{2,6}]dodeca-1(12),6,8,10-tetraen-4-ylidene]methyl}furan-2-yl)benzene-1-sulfonamide], the IC50 was 760 nM.
